Source: patent US9814709B2, “Bruton's tyrosine kinase inhibitor” (HEFEI INSTITUTES OF PHYSICAL SCIENCE, CHINESE ACADEMY OF …, priority 2014, dated 2017)
Like-named read-outs stand apart in the source and are kept apart here.

What was measured:
Type in all cases: cell-based
[1] = system: mouse TEL-BMX-BaF3 cells (stably expressing TEL-BMX activated kinase); test: Cell growth, Cell Titer-Glo; conditions: TEL-BMX-BaF3, 72 hrs, read-out: Half inhibitory concentration IC50
From the text: (§1) We further assessed the selectivity of Compound 1 to inhibit the proliferation of cancer cells, by testing the effect of Btk inhibitor on the growth of cancer cells. In the example, we used B-lymphoma cell Ramos, cervical cancer cells HeLa, prostate cancer cells DU145, RV-1 and C4-2, colon cancer cells HCT116, blood cancer cells K562, B-cell lymphoma cells U2932, diffuse large B-cell lymphoma cells OCI-LY10, diffuse histiocytic lymphoma cells SU-DHL-2, diffuse large B-cell lymphoma cells TMD8, human non-small cell lung cancer cells H1975 (expressing EGFR L858R/T790M double mutant gene), human lung adenocarcinoma cells A549 (expressing wild-type EGFR gene), human non-small cell lung cancer cells H460 (expressing wild-type EGFR gene), mantel cell lymphoma (MCL) cells Z-138, EB virus infected human peripheral lymphocyte cells JVM-2, MCL cells REC-1, leukemia cells AML-3, acute promyelocytic leukemia cell line NB-4(Lu+), MDS-RAEB (myelodysplastic syndrome-excessive blasts) cell line SKM-1 human leukemia cell Nomo-1, human B-cell leukemia cell line NALM6, human leukocyte leukemia cells HEL, human T-cell lymphoma cells PF-382, acute myelocytic leukemia (AML) cell line MOLM14, AML cell line MOLM13, human Burkitt's lymphoma cells Namalwa, mouse pro-B cells BaF3, all of where were purchased from ATCC. Also used were mouse TEL-EGFR-BaF3 (stably expressing TEL-EGFR activated kinase), mouse TEL-EGFR/T790-BaF3 cells (stably expressing TEL-EGFR-T790M activated mutant kinase), mouse TEL-EGFR/L858R-BaF3 cells (stably expressing TEL-EGFR-L858R activated mutant kinase), mouse TEL-EGFR/T790/L858R-BaF3 (stably expressing TEL-EGFR-T790M/L858R activated mutant kinase), mouse TEL-BMX-BaF3 cells (stably expressing TEL-BMX activated kinase), mouse TEL-JAK1-BaF3 cells (stably expressing TEL-JAK1 activated kinase), mouse TEL-JAK2-BaF3 cells (stably expressing TEL-JAK2 activated kinase), mouse TEL-JAK3-BaF3 cells (stably expressing TEL-JAK3 activated kinase), where were all established by our laboratory via the following method: the kinase domain sequences of human EGFR, BMX, JAK1, JAK2, JAK3 were amplified respectively by PCR, and these kinase were inserted into the MSCV-Puro vectors with N-terminal TEL segment (Clontech); if there was a mutation, the mutation of the corresponding site was conducted by Site-Directed Mutagenesis kit (Stratagene); the resultants were stably transfected into mouse BaF3 cells by the means of retrovirus, and the IL-3 growth factors were removed, and eventually the EGFR, BMX, JAK1, JAK2, JAK3-transferred protein dependent cell lines were obtained.
(§2) In the example, different concentrations (0.000508 μM, 0.00152 μM, 0.00457 μM, 0.0137 μM, 0.0411 μM, 0.123 μM, 0.370 μM, 1.11 μM, 3.33 μM, 10 μM) of Compound 1 and Compound 19 were added into above cells, and were incubated for 72 hrs. The number of viable cells was determined by quantitating ATP in viable cells using Cell Titer-Glo® (Promega, U.S.) chemiluminescence cell viability assay kit.

[2] = system: mouse TEL-EGFR-BaF3 (stably expressing TEL-EGFR activated kinase); test: Cell growth, Cell Titer-Glo; conditions: TEL-EGFR-BaF3, 72 hrs, read-out: Half inhibitory concentration IC50
From the text: as §1, §2

[3] = system: mouse TEL-EGFR/L858R-BaF3 cells (stably expressing TEL-EGFR-L858R activated mutant kinase); test: Cell growth, Cell Titer-Glo; conditions: TEL-EGFR/L858R-BaF3, 72 hrs, read-out: Half inhibitory concentration IC50
From the text: as §1, §2

[4] = system: mouse TEL-EGFR/T790-BaF3 cells (stably expressing TEL-EGFR-T790M activated mutant kinase); test: Cell growth, Cell Titer-Glo; conditions: TEL-EGFR/T790-BaF3, 72 hrs, read-out: Half inhibitory concentration IC50
From the text: as §1, §2

[5] = system: mouse TEL-EGFR/T790/L858R-BaF3 (stably expressing TEL-EGFR-T790M/L858R activated mutant kinase); test: Cell growth, Cell Titer-Glo; conditions: TEL-EGFR/T790/L858R-BaF3, 72 hrs, read-out: Half inhibitory concentration IC50
From the text: as §1, §2

[6] = system: mouse TEL-JAK1-BaF3 cells (stably expressing TEL-JAK1 activated kinase); test: Cell growth, Cell Titer-Glo; conditions: TEL-JAK1-BaF3, 72 hrs, read-out: Half inhibitory concentration IC50
From the text: as §1, §2

[7] = system: mouse TEL-JAK2-BaF3 cells (stably expressing TEL-JAK2 activated kinase); test: Cell growth, Cell Titer-Glo; conditions: TEL-JAK2-BaF3, 72 hrs, read-out: Half inhibitory concentration IC50
From the text: as §1, §2

[8] = system: mouse TEL-JAK3-BaF3 cells (stably expressing TEL-JAK3 activated kinase); test: Cell growth, Cell Titer-Glo; conditions: TEL-JAK3-BaF3, 72 hrs, read-out: Half inhibitory concentration IC50
From the text: as §1, §2

mouse pro-B cells BaF3 = test: Cell growth, Cell Titer-Glo; conditions: BaF3, 72 hrs (listed twice in Table 3), read-out: Half inhibitory concentration IC50
From the text: as §1, §2

BTK = BTK (Homo sapiens, UniProt Q06187); test: Phosphorylation of BTK in IL2-stimulated PBMC, Western Blot; parameters: endogenous in cells; host or cells: human peripheral blood mononuclear cells (PBMC); conditions: 3.5 hours, then 20 ng/mL IL2 30 min
Procedure: In order to test the effect of Compound 1 on human cells, a peripheral blood mononuclear cell (PBMC) culture system with BTK signal being activated by in vitro stimulation was introduced. The phenomena occurred in the clinical patients were simulated by stimulating PBMC of a normal human with IL2 to activate the BTK signal. PBMC cells were seeded in 6-well plate and Compound 1 of different concentrations (0, 0.01, 0.1, 1 μM), 1 μM of PCI-32765 and 1 μM of Compound 19 were added; 3.5 hours later after the administration, the samples were stimulated with 20 ng/ML IL2 for 30 min and then were collected. Western Blot assay was performed. […] The negative control Compound 19 had no effect on the phosphorylation of BTK.

Chain of BTK (Q06187 whole entry): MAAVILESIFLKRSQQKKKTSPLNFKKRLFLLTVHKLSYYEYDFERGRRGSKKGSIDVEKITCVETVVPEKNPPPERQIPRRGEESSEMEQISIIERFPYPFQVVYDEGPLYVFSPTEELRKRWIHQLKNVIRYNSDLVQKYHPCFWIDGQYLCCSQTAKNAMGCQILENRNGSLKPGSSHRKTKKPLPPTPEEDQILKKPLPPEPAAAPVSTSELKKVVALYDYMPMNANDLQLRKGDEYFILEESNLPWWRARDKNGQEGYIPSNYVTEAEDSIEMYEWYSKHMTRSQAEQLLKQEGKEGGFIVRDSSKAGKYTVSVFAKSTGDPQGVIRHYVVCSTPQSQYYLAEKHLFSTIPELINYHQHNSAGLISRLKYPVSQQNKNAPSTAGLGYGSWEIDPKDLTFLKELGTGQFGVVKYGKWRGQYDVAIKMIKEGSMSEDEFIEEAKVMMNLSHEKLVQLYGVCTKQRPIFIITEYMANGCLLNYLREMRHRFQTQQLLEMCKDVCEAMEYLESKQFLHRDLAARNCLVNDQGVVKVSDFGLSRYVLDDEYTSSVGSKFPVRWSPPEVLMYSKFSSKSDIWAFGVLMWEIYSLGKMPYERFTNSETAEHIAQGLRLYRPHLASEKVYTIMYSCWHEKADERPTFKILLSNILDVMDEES

`CCC(=O)Nc1cc(-n2c(=O)ccc3cnc4ccc(-n5cccn5)cc4c32)ccc1C` [Compound 19, N-(2-methyl-5-(2-oxo-9-(1H-pyrazol-1-yl)benzo[H][1,6]naphthyridin-1(2H)-yl)phenyl) propionamide] gave an IC50 [1] of over 10000 nM, an IC50 [2] of over 10000 nM and an IC50 [3] of over 10000 nM. It also gave an IC50 [4] of over 10000 nM, an IC50 [5] of over 10000 nM and an IC50 [6] of over 10000 nM. The IC50 [7] was over 10000 nM, the IC50 [8] was over 10000 nM and the IC50 (mouse pro-B cells BaF3; Mus musculus, BaF3, 72 h) was over 10000 nM. For the same compound, the “effect on phosphorylation of BTK in PBMCs” value (from here on “effect on phosphorylation”) (BTK; 1 μM) was “no effect”.
Compound `C=CC(=O)Nc1cc(-n2c(=O)ccc3cnc4ccc(-n5cccn5)cc4c32)ccc1C` [Compound 1, N-(2-methyl-5-(2-oxo-9-(1H-pyrazol-1-yl)benzo[H][1,6]naphthyridin-1(2H)-yl)phenyl)acrylamide] has an IC50 [1] of 18 nM, an IC50 [2] of 2660 nM and an IC50 [3] of 292 nM. The IC50 [4] was 918 nM, the IC50 [5] was 1590 nM and the IC50 [6] was 1600 nM. For the same compound, the IC50 [7] was 2100 nM, the IC50 [8] was 2300 nM and the IC50 (mouse pro-B cells BaF3) was 4280 nM. For the same compound, the IC50 (mouse pro-B cells BaF3; Mus musculus, BaF3, 72 h) was 4200 nM, the “effect on phosphorylation” value (BTK; 1 μM) was “comparative to that of the positive control” and the “effect on phosphorylation” value (BTK; 0.01, 0.1, 1 μM, some dose-dependency) was “significantly inhibited”.
